Experiments:
Y1R = target: T1, Y1R (Homo sapiens, UniProt P25929); assay: IP accumulation assay, chimeric GαΔ6qi4myr, Y1R; assay type: cell-based; details: chimeric GαΔ6qi4myr co-transfected, transiently transfected HEK293 cells, mean of at least three independent experiments
T1 construct: expressed in transfected cells; host or cells: HEK293, transient
T1 sequence (P25929 1-384): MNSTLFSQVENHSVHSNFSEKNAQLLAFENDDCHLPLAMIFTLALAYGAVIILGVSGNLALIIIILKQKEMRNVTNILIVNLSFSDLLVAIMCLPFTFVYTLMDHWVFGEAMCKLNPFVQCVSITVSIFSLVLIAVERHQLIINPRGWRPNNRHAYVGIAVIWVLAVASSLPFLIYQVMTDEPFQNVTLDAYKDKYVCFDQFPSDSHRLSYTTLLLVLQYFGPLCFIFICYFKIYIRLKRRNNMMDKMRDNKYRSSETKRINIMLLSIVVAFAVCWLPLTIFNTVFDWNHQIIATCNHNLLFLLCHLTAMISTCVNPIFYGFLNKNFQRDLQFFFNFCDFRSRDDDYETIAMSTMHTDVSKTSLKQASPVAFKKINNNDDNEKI
Experimental: (§1) For measuring IP accumulation, HEK293 cells grown to 70–80% confluency in 6-well plates were transiently co-transfected using Metafectene Pro (2.5 μl/μg DNA; Biontex) with plasmids containing receptor and/or mock (empty pcDNA3.1) (for endogenous Gq-coupling) using 4 μg total DNA in a ratio of 3:1 following the manufacturer’s instructions. For testing Gα16- and GαΔ6qi4myr-coupling, plasmids encoding the corresponding Gα protein were co-transfected instead of mock. Gα16 is naturally promiscuous and stimulates the phospholipase C (PLC) pathway leading to IP production, while the exchange of the C-terminal four amino acids of Gαq for the corresponding residues of Gαi1 in the chimeric GαΔ6qi4myr confers the ability to couple to Gi/o protein-preferring receptors but still stimulate PLC, thus specifically redirecting downstream cellular signaling. 16 h post transfection, the cells were seeded into white 384-well plates at a density of 20,000 cells/well. Media was removed 24 h later and the cells were incubated with the indicated concentration of peptides for 1 h in HBSS + 20 mM LiCl. IP accumulation was measured with the HTRF-based IP-One Gq kit (Cisbio) on a microplate reader (Tecan Spark).
(§2) For in vitro activation, data is presented as mean ± SEM of at least three independent experiments conducted in technical triplicate. […] For the C. elegans NPRs, we considered the strongest response elicited by any of the peptides downstream of a particular receptor as the receptor’s maximal signal. This may or may not be the biological maximum that can be reached by the ‘true’ endogenous agonist. For the human receptors, the response to the established endogenous agonist reflected the maximal signal.

Y4R = target: T2, Y4R (Homo sapiens, UniProt P50391); assay: IP accumulation assay, chimeric GαΔ6qi4myr, Y4R; assay type: cell-based; details: chimeric GαΔ6qi4myr co-transfected, transiently transfected HEK293 cells, mean of at least three independent experiments
T2 construct: expressed in transfected cells; host or cells: HEK293, transient
T2 sequence (P50391 whole entry): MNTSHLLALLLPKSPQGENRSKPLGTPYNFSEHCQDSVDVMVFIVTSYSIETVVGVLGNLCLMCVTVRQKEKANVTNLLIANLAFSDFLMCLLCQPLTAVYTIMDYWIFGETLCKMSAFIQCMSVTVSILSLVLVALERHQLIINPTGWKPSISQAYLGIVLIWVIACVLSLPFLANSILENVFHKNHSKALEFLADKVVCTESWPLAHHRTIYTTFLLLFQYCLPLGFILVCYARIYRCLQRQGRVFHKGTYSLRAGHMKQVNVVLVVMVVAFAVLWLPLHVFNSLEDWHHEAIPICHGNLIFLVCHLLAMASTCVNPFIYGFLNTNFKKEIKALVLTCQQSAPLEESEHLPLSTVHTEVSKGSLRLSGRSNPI
Experimental: as §1, §2

Y5R = target: T3, Y5R (Homo sapiens, UniProt Q15761); assay: IP accumulation assay, chimeric GαΔ6qi4myr, Y5R; assay type: cell-based; details: chimeric GαΔ6qi4myr co-transfected, transiently transfected HEK293 cells, mean of at least three independent experiments
T3 construct: expressed in transfected cells; host or cells: HEK293, transient
T3 sequence (Q15761 1-445): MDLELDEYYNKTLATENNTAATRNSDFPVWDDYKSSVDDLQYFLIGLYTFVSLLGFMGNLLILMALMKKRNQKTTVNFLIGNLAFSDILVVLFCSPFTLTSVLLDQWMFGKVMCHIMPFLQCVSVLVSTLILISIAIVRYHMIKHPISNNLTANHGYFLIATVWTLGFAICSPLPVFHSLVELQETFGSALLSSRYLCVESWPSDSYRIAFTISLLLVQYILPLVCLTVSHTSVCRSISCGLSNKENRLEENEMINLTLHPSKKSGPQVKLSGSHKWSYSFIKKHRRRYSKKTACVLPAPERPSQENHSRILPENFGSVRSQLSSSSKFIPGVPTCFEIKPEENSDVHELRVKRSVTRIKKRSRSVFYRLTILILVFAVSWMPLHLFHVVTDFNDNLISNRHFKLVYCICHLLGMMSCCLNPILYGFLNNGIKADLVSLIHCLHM
Experimental: as §1, §2

PrRPR = target: T4, PrRPR (Homo sapiens, UniProt P49683); assay: IP accumulation assay, endogenous Gαq coupling, PrRPR; assay type: cell-based; details: transiently transfected HEK293 cells, mean of at least three independent experiments
T4 construct: expressed in transfected cells; host or cells: HEK293, transient
T4 sequence (P49683 1-370): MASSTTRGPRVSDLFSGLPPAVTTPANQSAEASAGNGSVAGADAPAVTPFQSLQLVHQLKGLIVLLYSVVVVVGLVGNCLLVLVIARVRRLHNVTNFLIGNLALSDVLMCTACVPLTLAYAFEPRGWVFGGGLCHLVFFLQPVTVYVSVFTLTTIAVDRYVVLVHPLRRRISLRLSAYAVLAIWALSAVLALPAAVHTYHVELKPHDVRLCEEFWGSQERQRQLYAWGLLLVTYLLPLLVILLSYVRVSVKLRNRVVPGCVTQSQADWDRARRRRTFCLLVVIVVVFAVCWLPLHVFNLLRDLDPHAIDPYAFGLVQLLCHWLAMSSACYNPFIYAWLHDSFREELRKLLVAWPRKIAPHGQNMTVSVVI
Experimental: as §1, §2

[1] = Solubility of crude peptides in RP-HPLC purification solvents; assay type: physicochemical
Experimental: C-terminally amidated peptides were synthesized in 15 μmol scale by solid-phase peptide synthesis following the Fmoc/tert-butyl strategy (reviewed in [18]) on Rink amide resin using an automated Syro II peptide synthesizer (MultiSynTech). Automated coupling reactions were performed as double couplings using 8 eq Nα-protected amino acid, activated in situ with equimolar amounts of Oxyma and […] in dimethylformamide (DMF) for 30 min. Automated Fmoc deprotection was carried out with 40% (v/v) piperidine in DMF for 3 min and 20% (v/v) piperidine in DMF for 10 min. Reactive side chains of amino acids were protected by tert-butyl (tBu for Tyr, Ser, Asp, Glu, Thr), trityl (Trt for Asn, Gln, His), 2,2,4,6,7-pentamethyldihydrobenzofuran-5-sulfonyl (Pbf for Arg) and tert-butyloxycarbonyl (Boc for Lys). Peptides were cleaved off the resin using trifluoroacetic acid (TFA)/H2O/triisopropylsilane (90/5/5, v/v/v) for 2.5 h at room temperature and precipitated in ice cold diethyl ether. All peptides were purified to > 95% purity by RP-HPLC (Shimadzu) using a Phenomenex Jupiter 10 μm Proteo 90 Å (C12) column. For most peptides, linear gradients of H2O + 0.1% trifluoroacetic acid (TFA) (eluent A) and acetonitrile (ACN) + 0.08% TFA (eluent B) were applied at a flow rate of 10 ml/minute. […] FLP-27, FLP-33, and FLP-34 were solubilized by ultrasonication at 50 °C for 10 min and subsequently purified under standard solvent conditions used pre-heated HPLC systems. […] Peptide identity was verified by matrix-assisted laser desorption/time of flight (MALDI-ToF; Ultraflex III MALDI-ToF/ToF, Bruker Daltonics) mass spectrometry, and peptide purity was evaluated with analytical RP-HPLC.

- IP accumulation, x-fold of basal (mean), Y1R (Y1R; 0.1 µM peptide): 1.54 x-fold of basal
- IP accumulation, x-fold of basal (mean), Y1R (Y1R; 10 µM peptide): 3.82 x-fold of basal
- IP accumulation, x-fold of basal (mean), Y4R (Y4R; 0.1 µM peptide): 1.31 x-fold of basal
- IP accumulation, x-fold of basal (mean), Y4R (Y4R; 10 µM peptide): 1.29 x-fold of basal
- IP accumulation, x-fold of basal (mean), Y5R (Y5R; 0.1 µM peptide): 0.67 x-fold of basal
- IP accumulation, x-fold of basal (mean), Y5R (Y5R; 10 µM peptide): 1.41 x-fold of basal
- IP accumulation, x-fold of basal (mean), PrRPR# (PrRPR; 0.1 µM peptide): 1.86 x-fold of basal
- IP accumulation, x-fold of basal (mean), PrRPR# (PrRPR; 10 µM peptide): 0.96 x-fold of basal
- solubility of crude peptide at basic pH ([1]; 10 mM (NH4)2CO3, pH 8.5, used for purification): improved solubility at basic pH
- solubility of crude peptide ([1]; H2O + 0.1% TFA / acetonitrile + 0.08% TFA (RP-HPLC purification conditions)): partly insoluble
Substance: NPENDTPFGTMRF-NH2 [FLP-3-4, C. elegans FMRFamide-like peptide, C-terminally amidated, synthesized by SPPS]

Reference: publication PMC6751662, “Pharmacological and functional similarities of the human neuropeptide Y system in C. elegans challenges phylogenetic views on the FLP/NPR system” (Cell Communication and Signaling : CCS, 2019)
